By Ki is commonly meant the dissociation constant of the complex between target and ligand, obtained from inhibition or displacement. One may read the IC50 as the point on the concentration scale where inhibition reaches its midpoint. Read a high IC50 as weaker potency.

For 36 compounds, Ki and IC50 results are on record in ChEMBL document CHEMBL3399977, “Design, synthesis and preliminary bioactivity studies of 2-thioxo-4-thiazolidinone derivatives as Bcl-2 inhibitors” (Bioorg Med Chem, 2015).

The target in assay [1] is Apoptosis regulator Bcl-2 (Homo sapiens, UniProt P10415). Description: Inhibition of Bcl-2 (unknown origin) using 5-FAM-Bid-BH3 as substrate preincubated for 30 mins before substrate addition measured after 20 mins by fluorescence polarization technique. A general note: Polarisation of emitted light reports the rotation of a fluorescent probe.
A further assay addresses Bcl-2-like protein 1 (Homo sapiens, UniProt Q07817). As to the kind of experiment: Inhibition of Bcl-XL (unknown origin) using 5-FAM-Bid-BH3 as substrate preincubated for 30 mins before substrate addition measured after 20 mins by fluorescence polarization technique.
The target of assay [2] is Induced myeloid leukemia cell differentiation protein Mcl-1 (Homo sapiens, UniProt Q07820). As to the kind of experiment: Inhibition of Mcl-1 (unknown origin) using 5-FAM-Bid-BH3 as substrate preincubated for 30 mins before substrate addition measured after 20 mins by fluorescence polarization technique.
The subject of another assay is MDA-MB-231. As to the kind of experiment: Antiproliferative activity against human MDA-MB-231 cells after 48 hrs by MTT assay. Particulars: MDA-MB-231, 48 h; call rule not given here. It is filed as functional, cell-based. (In general: Tetrazolium dyes change colour on reduction, which living cells bring about.)
A short description of another assay: cells. Conditions: Homo sapiens, PC-3, 48 h.
For the next assay, the system named is K562. Description: cells. Conditions: Homo sapiens, K562, 48 h.

Bounds are passed on as bounds.

Chain of Induced myeloid leukemia cell differentiation protein Mcl-1 (Q07820 whole entry): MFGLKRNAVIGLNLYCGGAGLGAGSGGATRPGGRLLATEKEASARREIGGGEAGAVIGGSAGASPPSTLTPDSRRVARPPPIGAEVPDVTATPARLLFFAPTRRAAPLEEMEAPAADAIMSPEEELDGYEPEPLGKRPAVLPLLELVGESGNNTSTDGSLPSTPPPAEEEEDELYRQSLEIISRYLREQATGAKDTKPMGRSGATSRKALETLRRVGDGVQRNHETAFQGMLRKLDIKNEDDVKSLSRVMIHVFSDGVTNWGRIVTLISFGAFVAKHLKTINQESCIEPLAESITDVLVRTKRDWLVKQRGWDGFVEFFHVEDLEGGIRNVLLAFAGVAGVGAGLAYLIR
Chain of Bcl-2-like protein 1 (Q07817 whole entry): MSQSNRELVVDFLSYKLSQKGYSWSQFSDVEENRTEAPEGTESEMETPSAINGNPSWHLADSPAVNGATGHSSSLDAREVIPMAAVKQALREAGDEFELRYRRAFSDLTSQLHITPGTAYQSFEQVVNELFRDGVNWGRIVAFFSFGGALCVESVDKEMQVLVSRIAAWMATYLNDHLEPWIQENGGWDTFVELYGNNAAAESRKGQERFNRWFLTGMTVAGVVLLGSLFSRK
Chain of Apoptosis regulator Bcl-2 (P10415 whole entry): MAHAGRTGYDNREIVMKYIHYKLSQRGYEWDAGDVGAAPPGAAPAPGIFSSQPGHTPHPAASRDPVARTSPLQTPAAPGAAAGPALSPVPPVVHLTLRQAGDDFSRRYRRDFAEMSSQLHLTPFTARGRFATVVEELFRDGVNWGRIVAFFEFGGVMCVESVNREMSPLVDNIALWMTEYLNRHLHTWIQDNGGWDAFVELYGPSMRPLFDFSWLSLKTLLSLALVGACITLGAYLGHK

In the case of `CC(C)[C@@H](C(=O)NS(=O)(=O)c1ccccc1)N1C(=O)/C(=C/c2ccc(-c3ccccc3)cc2)SC1=S`, the affinity in assay [1], expressed as Ki, was 0.63 µM. As to `O=C(NS(=O)(=O)c1ccccc1)[C@H](Cc1ccc(Br)cc1)N1C(=O)/C(=C/c2ccc(-c3ccccc3)cc2)SC1=S`, in assay [1], the affinity, expressed as Ki, was 0.52 µM.

Take `O=C(NS(=O)(=O)c1ccccc1)[C@H](Cc1c[nH]c2ccccc12)N1C(=O)/C(=C/c2ccc(-c3ccccc3)cc2)SC1=S`: the Ki in assay [1] is 0.73 µM. Compound `C[C@@H](C(=O)NS(=O)(=O)c1ccccc1)N1C(=O)/C(=C/c2ccc(-c3ccccc3)cc2)SC1=S` yielded an inhibitory constant (Ki) in assay [1] of 2.4 µM.

For the compound `CC[C@H](C)[C@@H](C(=O)NS(=O)(=O)c1ccccc1)N1C(=O)/C(=C/c2ccc(-c3ccccc3)cc2)SC1=S`, the affinity in assay [1], expressed as Ki, was 0.41 µM.

In the case of `CSCC[C@@H](C(=O)NS(=O)(=O)c1ccccc1)N1C(=O)/C(=C/c2ccc(-c3ccccc3)cc2)SC1=S`, the affinity in assay [1] corresponds to a Ki of 0.95 µM.

Take `O=C(NS(=O)(=O)c1ccccc1)[C@H](Cc1ccccc1)N1C(=O)/C(=C/c2ccc(-c3ccc([N+](=O)[O-])cc3)cc2)SC1=S`: the Ki in assay [1] is 0.46 µM.

For `COC(=O)c1ccc(-c2ccc(/C=C3\SC(=S)N([C@@H](Cc4ccc(Br)cc4)C(=O)NS(=O)(=O)c4ccccc4)C3=O)cc2)cc1`, in assay [1], the inhibition constant Ki was found to be 0.46 µM. Regarding `O=C(NS(=O)(=O)c1ccccc1)[C@H](Cc1ccc(Br)cc1)N1C(=O)/C(=C/c2ccc(-c3ccc([N+](=O)[O-])cc3)cc2)SC1=S`, the Ki at Bcl-2-like protein 1 (read-out: Ki) was 0.54 µM; in assay [1] it was 0.42 µM; in assay [2] it was 0.086 µM. Besides, the IC50 was 46.1 µM in the assay with MDA-MB-231, > 50 µM in “cells” and > 50 µM with K562. As to `O=C(NS(=O)(=O)c1ccccc1)[C@H](Cc1ccc(Br)cc1)N1C(=O)/C(=C/c2ccc(-c3ccc(Cl)cc3)cc2)SC1=S`, the Ki on Bcl-2-like protein 1 (read-out: Ki) was 0.39 µM; in assay [1] it was 0.47 µM; in assay [2], 0.066 µM. The IC50 with MDA-MB-231 is 28.8 µM; in “cells” it was > 50 µM; in the assay with K562, 20.9 µM. In the case of `O=C(NS(=O)(=O)c1ccccc1)[C@H](Cc1c[nH]c2ccccc12)N1C(=O)/C(=C/c2ccc(-c3ccc(Cl)cc3)cc2)SC1=S`, the affinity in assay [1] corresponds to a Ki of 0.47 µM. On to `O=C(NS(=O)(=O)c1ccccc1)[C@H](Cc1c[nH]c2ccccc12)N1C(=O)/C(=C/c2ccc(-c3ccc([N+](=O)[O-])cc3)cc2)SC1=S`, for which, in assay [1], the affinity, expressed as Ki, was 0.54 µM. `O=C(NS(=O)(=O)c1ccc([N+](=O)[O-])cc1)[C@H](Cc1ccccc1)N1C(=O)/C(=C/c2ccc(-c3ccccc3)cc2)SC1=S` registered an inhibition constant Ki in assay [1] of 0.45 µM. Turning to `O=C(NS(=O)(=O)c1ccc(Cl)cc1)[C@H](Cc1ccccc1)N1C(=O)/C(=C/c2ccc(-c3ccccc3)cc2)SC1=S`, the Ki in assay [1] is 0.51 µM. In turn, `O=C(NS(=O)(=O)c1ccc(Cl)c([N+](=O)[O-])c1)[C@H](Cc1ccccc1)N1C(=O)/C(=C/c2ccc(-c3ccccc3)cc2)SC1=S` came in with an inhibition constant Ki in assay [1] of 0.54 µM.

Regarding `O=C(NS(=O)(=O)c1ccc(Cl)c([N+](=O)[O-])c1)[C@H](Cc1ccccc1)N1C(=O)/C(=C/c2ccc(-c3ccc(Cl)cc3)cc2)SC1=S`, the affinity in assay [1], expressed as Ki, was 1.9 µM. For the compound `O=C(NS(=O)(=O)c1ccc(Cl)c([N+](=O)[O-])c1)[C@H](Cc1ccccc1)N1C(=O)/C(=C/c2ccc(-c3ccc([N+](=O)[O-])cc3)cc2)SC1=S`, the affinity in assay [1], expressed as Ki, was 2.4 µM. `O=C(NS(=O)(=O)c1ccc([N+](=O)[O-])cc1)[C@H](Cc1ccccc1)N1C(=O)/C(=C/c2ccc(-c3ccc(Cl)cc3)cc2)SC1=S`: the affinity in assay [1] corresponds to a Ki of 0.66 µM. In assay [1], `COC(=O)c1ccc(-c2ccc(/C=C3\SC(=S)N([C@@H](Cc4ccccc4)C(=O)NS(=O)(=O)c4ccc(Cl)c([N+](=O)[O-])c4)C3=O)cc2)cc1` displayed an inhibitory constant (Ki) of 1.4 µM. For `O=C(NS(=O)(=O)c1ccc([N+](=O)[O-])cc1)[C@H](Cc1ccccc1)N1C(=O)/C(=C/c2ccc(-c3ccc([N+](=O)[O-])cc3)cc2)SC1=S`, the Ki in assay [1] stood at 0.8 µM.

As to `O=C(NS(=O)(=O)c1ccc(Cl)c([N+](=O)[O-])c1)[C@H](Cc1ccccc1)N1C(=O)/C(=C/c2ccc(-c3ccc(C(F)(F)F)cc3)cc2)SC1=S`, the Ki in assay [1] was determined as 0.87 µM. In assay [1], `O=C(NS(=O)(=O)c1ccc([N+](=O)[O-])cc1)[C@H](Cc1ccccc1)N1C(=O)/C(=C/c2ccc(-c3ccc(C(F)(F)F)cc3)cc2)SC1=S` yielded a Ki of 0.85 µM. `O=C(NS(=O)(=O)c1ccc(Cl)c([N+](=O)[O-])c1)[C@H](Cc1ccc(Br)cc1)N1C(=O)/C(=C/c2ccc(-c3ccc([N+](=O)[O-])cc3)cc2)SC1=S`: the inhibition constant Ki in assay [1] is > 50 µM. On to `O=C(NS(=O)(=O)c1ccc(Cl)c([N+](=O)[O-])c1)[C@H](Cc1ccc(Br)cc1)N1C(=O)/C(=C/c2ccc(-c3ccc(Cl)cc3)cc2)SC1=S`, for which the affinity in assay [1] corresponds to a Ki of 0.7 µM.

For `O=C(NS(=O)(=O)c1ccc([N+](=O)[O-])cc1)[C@H](Cc1ccc(Br)cc1)N1C(=O)/C(=C/c2ccc(-c3ccc(Cl)cc3)cc2)SC1=S`, the inhibition constant (Ki) at Bcl-2-like protein 1 (read-out: Ki) was 0.49 µM; in assay [1], 0.71 µM; in assay [2] it was 0.063 µM. Besides, the IC50 with MDA-MB-231 came to 28.6 µM; in “cells”, 24.1 µM; in the assay on K562, 9.44 µM.

As to `O=C(NS(=O)(=O)c1ccc([N+](=O)[O-])cc1)[C@H](Cc1ccc(Br)cc1)N1C(=O)/C(=C/c2ccc(-c3ccc([N+](=O)[O-])cc3)cc2)SC1=S`, the Ki result at Bcl-2-like protein 1 is “Not Active”; in assay [1], 0.36 µM; in assay [2] it was 0.074 µM. For the same compound, the IC50 in the assay with MDA-MB-231 was determined as 30.4 µM; in the assay “cells”, 40.7 µM; in the assay on K562, 7.9 µM. Take `O=C(NS(=O)(=O)c1ccc(Cl)c([N+](=O)[O-])c1)[C@H](Cc1ccc(Br)cc1)N1C(=O)/C(=C/c2ccc(-c3ccc(C(F)(F)F)cc3)cc2)SC1=S`: in assay [1], the affinity, expressed as Ki, was 1.2 µM. Still for that read-out and setting: the same measure for `O=C(NS(=O)(=O)c1ccc([N+](=O)[O-])cc1)[C@H](Cc1ccc(Br)cc1)N1C(=O)/C(=C/c2ccc(-c3ccc(C(F)(F)F)cc3)cc2)SC1=S`: 0.9 µM; for `O=C(NS(=O)(=O)c1ccc(Cl)c([N+](=O)[O-])c1)[C@H](Cc1c[nH]c2ccccc12)N1C(=O)/C(=C/c2ccc(-c3ccc(Cl)cc3)cc2)SC1=S`: 5.6 µM; for `O=C(NS(=O)(=O)c1ccc(Cl)c([N+](=O)[O-])c1)[C@H](Cc1c[nH]c2ccccc12)N1C(=O)/C(=C/c2ccc(-c3ccc([N+](=O)[O-])cc3)cc2)SC1=S`: 0.75 µM. Take `O=C(NS(=O)(=O)c1ccc([N+](=O)[O-])cc1)[C@H](Cc1c[nH]c2ccccc12)N1C(=O)/C(=C/c2ccc(-c3ccc(Cl)cc3)cc2)SC1=S`: in assay [1], the Ki worked out at 0.68 µM.

In assay [1], `O=C(NS(=O)(=O)c1ccc([N+](=O)[O-])cc1)[C@H](Cc1c[nH]c2ccccc12)N1C(=O)/C(=C/c2ccc(-c3ccc(C(F)(F)F)cc3)cc2)SC1=S` displayed a Ki of 0.75 µM. Consider `Cc1ccc(-c2ccc(/C=C3\SC(=S)N([C@@H](Cc4c[nH]c5ccccc45)C(=O)NS(=O)(=O)c4ccc([N+](=O)[O-])cc4)C3=O)cc2)cc1`, for which the inhibition constant Ki in assay [1] came to 0.72 µM. `O=C(NS(=O)(=O)c1ccc([N+](=O)[O-])cc1)[C@H](Cc1c[nH]c2ccccc12)N1C(=O)/C(=C/c2ccc(-c3ccc([N+](=O)[O-])cc3)cc2)SC1=S` returned an inhibition constant Ki in assay [1] of 0.08 µM. Turning to `Cc1ccc(S(=O)(=O)NC(=O)[C@H](Cc2ccccc2)N2C(=O)/C(=C/c3ccc(-c4ccccc4)cc3)SC2=S)cc1`, the Ki at Bcl-2-like protein 1 (read-out: Ki) is 0.66 µM; in assay [1], 0.72 µM; in assay [2], 0.25 µM. Regarding `Cc1cc2c(C(C)C)c(O)c(O)c(C=O)c2c(O)c1-c1c(C)cc2c(C(C)C)c(O)c(O)c(C=O)c2c1O` [GOSSYPOL], the IC50 came to 9.21 µM with MDA-MB-231, 6.26 µM in “cells” and 4.55 µM in the assay on K562.
